Assay results from patent publication US20250154288A1, “CYTOTOXICITY TARGETING CHIMERAS FOR C-C CHEMOKINE RECEPTOR 2-EXPRESSING CELLS” (GLAXOSMITHKLINE INTELLECTUAL PROPERTY DEVELOPMENT LIMITED, priority 2022, published 2025).
Where a name gives a salt, the structure may show the parent alone.

The compounds below were run against Anti-cotinine antibody (SEQ ID NO: 11 / SEQ ID NO: 12) (assay: Binding of Anti-Cotinine Antibody to ARM Compounds measured by Surface Plasmon Resonance (SPR)). Details: Biacore T200, 37° C., Kd = koff/kon, average if several runs.
Set-up: species or system rabbit variable region with human IgG1 Fc domain
Experimental: Anti-cotinine antibodies having a heavy chain sequence of SEQ ID NO: 11 and a light chain sequence of SEQ ID NO: 12 (rabbit variable region with human IgG1 Fc domain containing a DE mutation (S239D/I332E)) were captured on one or more flow cells of a protein A sensor chip (Cytiva) using a Biacore T200 while reserving flow cell 1 as a reference. Following capture, a 3000 second wait step was included to reduce drift during compound analysis. ARM compounds of Formula (I) were then injected at 100 μL/min with 200 and 2000 second association and dissociation times. The entire experiment was run at 37° C. with running buffer containing 10 mM HEPES pH 7.4, 150 mM NaCl, 0.005% P20 and 1% DMSO. ARM compounds of Formula (I) were titrated with a top concentration of 200 nM using a 3-fold 5-point dilution series and a corresponding 5-injection buffer cycle was run for blank subtraction. Data were double referenced by subtracting the response of the reference flow cell from that of the antibody-containing flow cell and subsequently subtracting the referenced blank sensorgrams. Following compound analysis, the surface was regenerated using a 30 second injection of pH 1.5 glycine at a flow rate of 30 μL/min after which antibody was re-captured. The experiment was run using Biacore T200 control software and evaluated using Biacore T200 Evaluation software. Curves were fit with a 1:1 kinetic binding model to obtain kon(1/Ms), koff(1/s), Kd (M) determined as koff/kon, and residence time determined as 1/koff. (s).
Anti-cotinine antibody was tested for binding to ARMs compounds of Formula (I) of the invention in the above assay in or more experimental runs and the results are shown in Table 5 below. Affinity is reported as a pKd value. The pKd value is the negative log of the Kd value, wherein the Kd value is the dissociation constant measured in molar (M) as noted above. For compounds tested in more than one experimental run, the pKd value is reported as an average

SMILES | pKd of Antibody for ARM Compound of Formula (I)
CO[C@@H]1COCC[C@@H]1N[C@@H]1CC[C@@](C(=O)N2Cc3cc(C(F)(F)F)cnc3[C@H](NC(=O)[C@H]3CC[C@H](NC(=O)CCCO[C@H]4CC[C@H](OCCNC(=O)[C@H]5CC(=O)N(C)[C@@H]5c5cccnc5)CC4)CC3)C2)(C(C)C)C1 [Example 14, (2S,3S)-N-(2-(((1R,4S)-4-(4-(((1R,4R)-4-(((R)-6-((1S,3R)-1-isopropyl-3-(((3S,4S)-3-methoxytetrahydro-2H-pyran-4-yl)amino)cyclopentane-1-carbonyl)-3-(trifluoromethyl)-5,6,7,8-tetrahydro-1,6-naphthyridin-8-yl)carbamoyl)cyclohexyl)amino)-4-oxobutoxy)cyclohexyl)oxy)ethyl)-1-methyl-5-oxo-2-(pyridin-3-yl)pyrrolidine-3-carboxamide, 3Formic acid salt] | 9.0
CO[C@@H]1COCC[C@@H]1N[C@@H]1CC[C@@](C(=O)N2CCc3nc(CCCCOc4cccc(C(=O)NCCOCCOCCOCCOCCOCCOCCOCCOCCOCCNC(=O)[C@H]5CC(=O)N(C)[C@@H]5c5cccnc5)c4)c(C(F)(F)F)cc3C2)(C(C)C)C1 [Example 22, (2S,3S)—N-(1-(3-(4-(6-((1S,3R)-1-Isopropyl-3-(((3S,4S)-3-methoxytetrahydro-2H-pyran-4-yl)amino)cyclopentane-1-carbonyl)-3-(trifluoromethyl)-5,6,7,8-tetrahydro-1,6-naphthyridin-2-yl)butoxy)phenyl)-1-oxo-5,8,11,14,17,20,23,26,29-nonaoxa-2-azahentriacontan-31-yl)-1-methyl-5-oxo-2-(pyridin-3-yl)pyrrolidine-3-carboxamide] | 9.3
CO[C@@H]1COCC[C@@H]1N[C@@H]1CC[C@@](C(=O)N2Cc3cc(C(F)(F)F)cnc3[C@@H](NC(=O)[C@H]3CC[C@H](NC(=O)CCCO[C@H]4CC[C@H](OCCNC(=O)[C@H]5CC(=O)N(C)[C@@H]5c5cccnc5)CC4)CC3)C2)(C(C)C)C1 [Example 15, (2S,3S)-N-(2-(((1R,4S)-4-(4-(((1S,4R)-4-(((S)-6-((1S,3R)-1-isopropyl-3-(((3S,4S)-3-methoxytetrahydro-2H-pyran-4-yl)amino)cyclopentane-1-carbonyl)-3-(trifluoromethyl)-5,6,7,8-tetrahydro-1,6-naphthyridin-8-yl)carbamoyl)cyclohexyl)amino)-4-oxobutoxy)cyclohexyl)oxy)ethyl)-1-methyl-5-oxo-2-(pyridin-3-yl)pyrrolidine-3-carboxamide] | 9.0
CO[C@@H]1COCC[C@@H]1N[C@@H]1CC[C@](CCC2CCN(C(=O)[C@H]3CC[C@H](NC(=O)CCCO[C@H]4CC[C@H](OCCNC(=O)[C@H]5CC(=O)N(C)[C@@H]5c5cccnc5)CC4)CC3)CC2)(C(=O)N2CCc3ncc(C(F)(F)F)cc3C2)C1 [Example 2, (2S,3S)—N-(2-(((1R,4S)-4-(4-(((1S,4R)-4-(4-(2-((1S,3R)-3-(((3S,4S)-3-Methoxytetrahydro-2H-pyran-4-yl)amino)-1-(3-(trifluoromethyl)-5,6,7,8-tetrahydro-1,6-naphthyridine-6-carbonyl)cyclopentyl)ethyl)piperidine-1-carbonyl)cyclohexyl)amino)-4-oxobutoxy)cyclohexyl)oxy)ethyl)-1-methyl-5-oxo-2-(pyridin-3-yl)pyrrolidine-3-carboxamide] | 9.2
CO[C@@H]1COCC[C@@H]1N[C@@H]1CC[C@](CCCCCNC(=O)[C@H]2CC[C@H](NC(=O)CCCO[C@H]3CC[C@H](OCCNC(=O)[C@H]4CC(=O)N(C)[C@@H]4c4cccnc4)CC3)CC2)(C(=O)N2CCc3ncc(C(F)(F)F)cc3C2)C1 [Example 9, (2S,3S)-N-(2-(((1R,4S)-4-(4-(((1S,4R)-4-((5-((1S,3R)-3-(((3S,4S)-3-Methoxytetrahydro-2H-pyran-4-yl)amino)-1-(3-(trifluoromethyl)-5,6,7,8-tetrahydro-1,6-naphthyridine-6-carbonyl)cyclopentyl)pentyl)carbamoyl)cyclohexyl)amino)-4-oxobutoxy)cyclohexyl)oxy)ethyl)-1-methyl-5-oxo-2-(pyridin-3-yl)pyrrolidine-3-carboxamide] | 9.2
CO[C@@H]1COCC[C@@H]1N[C@@H]1CC[C@](CCNC(=O)[C@H]2CC[C@H](NC(=O)CCCO[C@H]3CC[C@H](OCCNC(=O)[C@H]4CC(=O)N(C)[C@@H]4c4cccnc4)CC3)CC2)(C(=O)N2CCc3ncc(C(F)(F)F)cc3C2)C1 [Example 8, (2S,3S)-N-(2-(((1R,4S)-4-(4-(((1R,4R)-4-((2-((1R,3R)-3-(((3S,4S)-3-Methoxytetrahydro-2H-pyran-4-yl)amino)-1-(3-(trifluoromethyl)-5,6,7,8-tetrahydro-1,6-naphthyridine-6-carbonyl)cyclopentyl)ethyl)carbamoyl)cyclohexyl)amino)-4-oxobutoxy)cyclohexyl)oxy)ethyl)-1-methyl-5-oxo-2-(pyridin-3-yl)pyrrolidine-3-carboxamide] | 9.1
CO[C@@H]1COCC[C@@H]1N[C@@H]1CC[C@](CCCCNC(=O)[C@H]2CC[C@H](NC(=O)CCCO[C@H]3CC[C@H](OCCNC(=O)[C@H]4CC(=O)N(C)[C@@H]4c4cccnc4)CC3)CC2)(C(=O)N2CCc3ncc(C(F)(F)F)cc3C2)C1 [Example 7, (2S,3S)-N-(2-(((1R,4S)-4-(4-(((1S,4R)-4-((4-((1S,3R)-3-(((3S,4S)-3-Methoxytetrahydro-2H-pyran-4-yl)amino)-1-(3-(trifluoromethyl)-5,6,7,8-tetrahydro-1,6-naphthyridine-6-carbonyl)cyclopentyl)butyl)carbamoyl)cyclohexyl)amino)-4-oxobutoxy)cyclohexyl)oxy)ethyl)-1-methyl-5-oxo-2-(pyridin-3-yl)pyrrolidine-3-carboxamide] | 9.2
CO[C@@H]1COCC[C@@H]1N[C@@H]1CC[C@](CCCNC(=O)[C@H]2CC[C@H](NC(=O)CCCO[C@H]3CC[C@H](OCCNC(=O)[C@H]4CC(=O)N(C)[C@@H]4c4cccnc4)CC3)CC2)(C(=O)N2CCc3ncc(C(F)(F)F)cc3C2)C1 [Example 3, (2S,3S)-N-(2-(((1R,4S)-4-(4-(((1S,4R)-4-((3-((1S,3R)-3-(((3S,4S)-3-Methoxytetrahydro-2H-pyran-4-yl)amino)-1-(3-(trifluoromethyl)-5,6,7,8-tetrahydro-1,6-naphthyridine-6-carbonyl)cyclopentyl)propyl)carbamoyl)cyclohexyl)amino)-4-oxobutoxy)cyclohexyl)oxy)ethyl)-1-methyl-5-oxo-2-(pyridin-3-yl)pyrrolidine-3-carboxamide] | 9.1

What follows are compounds tested on endogenous target monocytes of human PBMC (assay: PBMC Ex Vivo Depletion Assay (human PBMC monocyte depletion flow cytometry)). Details: monocyte depletion in human PBMC with anti-cotinine antibody; 18-24 hours incubation; read-out: Ex Vivo Depletion Assay pEC50 (converted).
Format: cell-based
Experimental: A human PBMC (peripheral blood mononuclear cells) monocyte depletion flow cytometry assay was developed to screen compounds in a 384-well plate format. This assay incorporated endogenous natural killer cells to deplete endogenous target monocytes.
To screen compounds in the human PBMC monocyte depletion flow cytometry assay, 11-point dose-response curves were made from 1 mM stocks in neat DMSO by serially diluting an ARM compound of Formula (I) four-fold into a 384-well plate row-wise. These serially diluted compounds were then stamped into a flat bottom polypropylene 384-well plate (Greiner Bio-One) at 100 nL/well. […]
After 18-24 hours incubation, 2 μL of 6.25 μg human FC block (BD Pharmingen) that was diluted in assay medium was added to the wells of the plate. […] Samples from the plate were run on BD FACS Canto II flow cytometer and data was analyzed using FlowJo software.
ARMs compounds of Formula (I) of the invention were tested for the ability to deplete monocytes in the above assay in one or more experimental runs and the results are shown in Table 3 below. […] The pEC50 value is the negative log of the EC50 value, wherein the EC50 value is the half maximal effective concentration measured in molar (M). For compounds tested in more than one experimental run, the pEC50 value is reported as an average or as the individual values measured

SMILES | EC50
CO[C@@H]1COCC[C@@H]1N[C@@H]1CC[C@@](C(=O)N2CCc3nc(CCCCOc4cccc(C(=O)NCCOCCOCCOCCOCCOCCOCCOCCOCCOCCNC(=O)[C@H]5CC(=O)N(C)[C@@H]5c5cccnc5)c4)c(C(F)(F)F)cc3C2)(C(C)C)C1 [Example 22, (2S,3S)—N-(1-(3-(4-(6-((1S,3R)-1-Isopropyl-3-(((3S,4S)-3-methoxytetrahydro-2H-pyran-4-yl)amino)cyclopentane-1-carbonyl)-3-(trifluoromethyl)-5,6,7,8-tetrahydro-1,6-naphthyridin-2-yl)butoxy)phenyl)-1-oxo-5,8,11,14,17,20,23,26,29-nonaoxa-2-azahentriacontan-31-yl)-1-methyl-5-oxo-2-(pyridin-3-yl)pyrrolidine-3-carboxamide] | 794 pM
